Data as given in patent US7067528B2, “1, 2-dihydro-2-oxo-1, 8-naphthyridine derivative” (Sumitomo Pharmaceuticals Co., Ltd., priority 2001, dated 2006).
Counter-ions that a name gives are not always drawn.

Test: Stability Test: storage at 60° C., 75% R.H., residual amount of the compound by HPLC
Assay type: physicochemical
Description: The crystals of N-[1-butyl-4-[3-[3-(hydroxy)propoxy]-phenyl]-1,2-dihydro-2-oxo-1,8-naphthyridin-3-yl]-N′-(2,6-diisopropyl-4-aminophenyl)urea hydrochloride monohydrate obtained in Example 1 and amorphous N-[1-butyl-4-[3-[3-(hydroxy)propoxy]phenyl]-1,2-dihydro-2-oxo-1,8-naphthyridin-3-yl]-N′-(2,6-diisopropyl-4-aminophenyl)urea hydrochloride were stored at a temperature of 60° C. under a relative humidity (R.H.) of 75% for 4 weeks. Then, the residual amount of the compound therein was quantitatively analyzed using High Performance Liquid Chromatography (HPLC).

| HPLC Area Percentage (%) (Initial value, before storage at 60° C. / 75% R.H.) | HPLC Area Percentage (%) (storage period 2 weeks at 60° C., relative humidity 75%) | HPLC Area Percentage (%) (storage period 4 weeks at 60° C., relative humidity 75%) | stability compared with the amorphous hydrochloride (60° C., 75% R.H., 4 weeks, conclusion in words from Table 2) | Compound |
| --- | --- | --- | --- | --- |
| 97.7 | 94.6 | 92.7 |  | CCCCn1c(=O)c(NC(=O)Nc2c(C(C)C)cc(N)cc2C(C)C)c(-c2cccc(OCCCO)c2)c2cccnc21.Cl [Amorphous, N-[1-butyl-4-[3-[3-(hydroxy)propoxy]phenyl]-1,2-dihydro-2-oxo-1,8-naphthyridin-3-yl]-N′-(2,6-diisopropyl-4-aminophenyl)urea hydrochloride] |
|  |  |  | quite excellent in stability | CCCCn1c(=O)c(NC(=O)Nc2c(C(C)C)cc(N)cc2C(C)C)c(-c2cccc(OCCCO)c2)c2cccnc21 [Example 1, N-[1-butyl-4-[3-[3-(hydroxy)propoxy]phenyl]-1,2-dihydro-2-oxo-1,8-naphthyridin-3-yl]-N′-(2,6-diisopropyl-4-amino-phenyl)urea hydrochloride monohydrate] |
